Legend:
Assay type in all cases: in vivo
[1] = system: Tobacco Budworm [Heliothis virescens (Fabricius)] eggs; test: Tobacco budworm egg test; conditions: 2-day old eggs, percent in solution
Description: (§1) The compounds in Tables 1 and 2 above were tested for insecticidal activity using the following testing procedures. LC50 values, based on the results of these tests and calculated according to dosage-mortality curves, are expressed in Table 3.
Tobacco Budworm [Heliothis virescens (Fabricius)]:
(b). Eggs: Paper towel patches of 2-day old eggs of the tobacco budworm were dipped in acetone solutions of the test compound and placed in petri dishes containing a portion of larval rearing medium. Treated eggs were maintained at 78° F. and mortality was recorded after all control eggs had hatched and the young larvae were feeding on the media. Test concentrations ranged from 0.1% downward. The LC-50 value is expressed below in Table 3 under the heading "TBW-E" in terms of percent of the test compound in the solution.

[2] = system: Cabbage Looper [Trichoplusia ni (Hubner)]; test: Cabbage looper insecticidal test; conditions: second-instar larvae, percent in solution; 3-5 days
Description: as §1
Cabbage Looper [Trichoplusia ni (Hubner)]:
Test compounds were diluted in a 50-50 acetone-water solution. Cotyledons of hyzini squash (Calabacita abobrinha), approximately 1×1.5 inches, were immersed in the test solutions for 2-3 seconds and placed on a wire screen to dry. The dried leaves were placed in petri dishes containing a moistened piece of filter paper and infested with 5 second-instar cabbage looper larvae. The dishes were placed in a high humidity chamber. Mortality of the larvae was recorded 3-5 days later. Test concentrations ranged from 0.1% downward. The LC-50 value is expressed below in Table 3 under the heading "CL" in terms of percent of the test compound in solution.

[3] = system: Housefly [Musca domestica]; test: Housefly insecticidal test; conditions: μg per 25 female flies; mortality after 48 hours
Description: as §1
Housefly [Musca domestica]:
Test compounds were diluted in acetone and aliquots pipetted onto the bottom of aluminum dishes. To ensure even spreading of the chemical on the bottom of the dishes, 1 ml of acetone containing 0.01% peanut oil was also added to each dish. After all solvents had evaporated, the dishes were placed in circular cardboard cages containing 25 female houseflies, 1-2 days old. The cages were covered on the bottom with cellophane and on the top with tulle netting, and each contained a sugar-water saturated cotton plug for maintenance of the flies. Mortality was recorded after 48 hours. Test levels ranged from 100 μg/25 female houseflies downward. The LC-50 value is expressed below in Table 3 under the heading "HF", in terms of μg of the test compound per 25 female flies.

Row | SMILES | LC50, TBW, E (TBW-E) [1] [%] | LC50, CL [2] [%] | LC50, HF [3] [µg]
1 | CC(C)(Cl)C(=Nc1ccc(Cl)c2ccccc12)OCc1cccc(Oc2ccccc2)c1 [Compound 111] | > 0.1 | 0.1 | > 100
2 | CCC(=Nc1ccc(F)c(Cl)c1)OCc1cccc(Oc2ccc(F)cc2)c1 [Compound 115] | 0.075 | 0.0012 | 10
3 | CC(Br)C(=Nc1ccc(F)c(Cl)c1)OCc1cccc(Oc2ccccc2)c1 (stereo not drawn) [Compound 118] | > 0.1 | 0.0013 | 18
4 | CCCCC(=Nc1ccc(F)c(Cl)c1)OCc1cccc(Oc2ccccc2)c1 [Compound 121] | > 0.1 | 0.1 | > 100
5 | CCCC(=Nc1ccc(F)c(Cl)c1)OCc1cccc(Oc2ccccc2)c1 [Compound 123] | > 0.1 | 0.012 | > 100
6 | CC(C)C(=Nc1cccc(C#N)c1)OCc1cccc(Oc2ccccc2)c1 [Compound 126] | > 0.1 | 0.08 | > 100
7 | Cc1cc(N=C(OCc2cccc(Oc3ccccc3)c2)C(C)C)ccc1Br [Compound 127] | 0.04 | 0.01 | 58
8 | CC(C)C(=Nc1c(Br)cc(F)cc1Br)OCc1cccc(Oc2ccccc2)c1 [Compound 130] | > 0.1 | 0.005 | > 100
9 | Cc1cc(Br)ccc1N=C(OCc1cccc(Oc2ccccc2)c1)C(C)C [Compound 133] | 0.1 | 0.005 | 66
10 | CC(C)(C)C(=Nc1cccc(Br)c1)OCc1cccc(Oc2ccccc2)c1 [Compound 134] | > 0.1 | 0.015 | > 100
11 | CC(C)C(=Nc1cccc(I)c1)OCc1cccc(Oc2ccccc2)c1 [Compound 136] | 0.08 | 0.004 | 9
12 | CSc1ccc(N=C(OCc2cccc(Oc3ccccc3)c2)C(Cl)Cl)cc1 [Compound 141] | > 0.1 | < 0.1 | 35
13 | Cc1cccc(N=C(OCc2cccc(Oc3ccccc3)c2)C(C)C)c1C [Compound 148] | 0.025 | 0.0025 | 18
14 | COc1ccc(C)cc1N=C(OCc1cccc(Oc2ccccc2)c1)C(C)C [Compound 150] | > 0.1 | 0.01 | 89
15 | CCCCc1ccc(N=C(OCc2cccc(Oc3ccccc3)c2)C(C)C)cc1 [Compound 152] | > 0.1 | 0.009 | > 100
16 | CCC(=Nc1ccc(CC)cc1)OCc1cccc(Oc2ccccc2)c1 [Compound 157] | > 0.1 | 0.009 | 25

Row | SMILES | LC50, TBW, E (TBW-E) [1] [%] | LC50, CL [2] [%] | LC50, HF [3] [µg]
17 | Cc1ccc(N=C(OCc2cccc(Oc3ccccc3)c2)C(C)C)cc1C [Compound 158] | 0.1 | 0.003 | 9
18 | CCOc1ccc(N=C(OCc2cccc(Oc3ccccc3)c2)C(C)(C)C)cc1 [Compound 164] | > 0.1 | 0.005 | > 100
19 | CC(C)c1ccc(N=C(OCc2cccc(Oc3ccccc3)c2)C(C)(C)C)cc1 [Compound 165] | > 0.1 | 0.007 | > 100
20 | CSc1cccc(N=C(OCc2cccc(Oc3ccccc3)c2)C(C)C)c1 [Compound 166] | > 0.1 | 0.009 | 22
21 | Cc1ccc(N=C(OCc2cccc(Oc3ccccc3)c2)C(C)(C)C)cc1C [Compound 167] | > 0.1 | 0.02 | > 100
22 | CCOC(=O)c1cccc(N=C(OCc2cccc(Oc3ccccc3)c2)C(C)(C)C)c1 [Compound 168] | > 0.1 | 0.1 | > 100
23 | COc1ccc(N=C(OCc2cccc(Oc3ccccc3)c2)C(C)C)cc1OC [Compound 169] | > 0.1 | 0.009 | 10
24 | CC(=O)c1cccc(N=C(OCc2cccc(Oc3ccccc3)c2)C(C)C)c1 [Compound 170] | > 0.1 | 0.1 | 37
25 | CCOc1cccc(N=C(OCc2cccc(Oc3ccccc3)c2)C(C)C)c1 [Compound 171] | > 0.1 | 0.01 | 80
26 | CC(C)(C)C(=Nc1cccc([N+](=O)[O-])c1)OCc1cccc(Oc2ccccc2)c1 [Compound 175] | > 0.1 | 0.018 | > 100
27 | CC(C)C(=Nc1ccc2c(c1)OC(C)(C)O2)OCc1cccc(Oc2ccccc2)c1 [Compound 182] | 0.04 | 0.0006 | 28
28 | CC(C)C(=Nc1ccc2c(c1)OCO2)OCc1cccc(Oc2ccccc2F)c1 [Compound 183] | 0.075 | 0.00075 | 10
29 | CCCC(=Nc1ccc(OC)cc1)OCc1cccc(Oc2ccccc2)c1 [Compound 184] | > 0.1 | 0.024 | 61
30 | CCC(C)C(=Nc1ccc2c(c1)OCO2)OCc1cccc(Oc2ccccc2)c1 (stereo not drawn) [Compound 185] | 0.075 | 0.0006 | 13
31 | CC(C)C(=Nc1ccc2c(c1)OCO2)OCc1cccc(Oc2ccccc2F)c1 [Compound 190] | 0.023 | 0.0004 | 7.5
32 | CC(C)C(=Nc1cccc(C(F)(F)F)c1)OCc1cccc(Oc2cccc(F)c2)c1 [Compound 192] | 0.07 | 0.0012 | 25
